Results: patent publication US20230172189A1, “Methods for Extending the Shelf-life of Stored Donor Blood and/or Red Blood Cells and Treated Red Blood Cell Compositions Produced Thereby” (Ohio University, priority 2020, published 2023)

Tests used:
RBCs [1] = test: Hemolysis of RBCs during lipid exchange (UV-Vis absorbance at 541 nm); type: cell-based; conditions: for hemolysis of RBCs during lipid exchange: exogenous lipid loaded into MαCD, one hour incubation
Description: The release of hemoglobin from the RBCs is considered as a sign of disrupting the cell membrane and consequently extracting the inner leaflet.
The hemolysis of RBCs during lipid exchange was measured using UV-Vis spectroscopy.
Presence of hemoglobin in the exchange solution is believed to be a disruption of the RBCs, lead to extracting the inner leaflet of the membrane. To monitor the amount of hemolysis after the exchange, the cells were centrifuged at 750×g for 5 minutes, 200 μL of the supernatant was collected, and its absorbance at 541 nm was measured using a plate reader. RBCs suspended in DPBS and water for 1 hour, at the same hematocrit concentrations as the ones used for exchange experiments, were used as negative and positive controls for the hemolysis. Both controls were also centrifuged at 750×g for 5 minutes.

RBCs [2] = test: Confocal microscopy of RBCs after exchange with a fluorescent lipid; type: cell-based; conditions: 19:1 POPS:NBD-PE, one hour incubation, with or without MαCD
Description: To confirm that MαCD mediates the lipid exchange and that the lipids are exchanged with the outer leaflet only, confocal microscopy was performed on the RBCs after the exchange. A mixture of POPS and 1,2-dipalmitoyl-sn-glycero-3-phosphoethanolamine-N-(7-nitro-2-1,3-benzoxadiazol-4-yl) (NBD-PE) with a molar ratio 19:1 POPS:NBD-PE was used. RBCs are incubated for one hour with the lipid mixture without MαCD (FIG. 2A) or with the lipid mixture loaded into MαCD (FIG. 2B).
Delivering of the phospholipids to the membrane was studied using fluorescence. A quenching agent was used to diminish the fluorescence to examine whether the lipids were delivered to the outer or inner leaflet. Organic solutions of a fluorescent phospholipid (NBD-PE) and POPS were mixed to a molar ratio of 1:19 NBD-PE:POPS. The other steps prior to the exchange experiment were as mentioned before. After the exchange, the cells were centrifuged at 750×g for 5 minutes, the precipitated RBCs were collected, re-suspended in 10% sucrose in DPBS, loaded onto a glass slide, and imaged using a confocal microscope. Sodium dithionite solution was made to a concentration of 50 mM and was added to an aliquot of the exchanged RBCs 1 minute prior to loading onto glass slides and imaging.

CCCCCCCC/C=C\CCCCCCCC(=O)OC(COC(=O)CCCCCCCCCCCCCCC)COP(=O)([O-])OCC[N+](C)(C)C (stereo not shown) [POPC, 1-palmitoyl-2-oleoyl-glycero-3-phosphocholine]
hemolysis of RBCs during lipid exchange (RBCs [1]): lowest hemolysis

CCCCCCCC/C=C\CCCCCCCC(=O)O[C@H](COC(=O)CCCCCCCCCCCCCCC)COP(=O)(O)OC[C@H](N)C(=O)O [POPS, 1-palmitoyl-2-oleoyl-sn-glycero-3-phospho-L-serine]
hemolysis of RBCs during lipid exchange (RBCs [1]): lowest hemolysis

methyl-α-cyclodextrin [MαCD]
mediation of lipid exchange with RBC outer leaflet (RBCs [2]): lipid exchange only occurs in the presence of MαCD
capability of mediating the exchange process (RBCs [1]; two MαCD concentrations tested during optimisation): both concentrations were capable of mediating the exchange process
